Experimental data as given in PubChem BioAssay (NCI).
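Cultured in 96-well plates, cells were exposed to test compound for 48 hours across five concentrations. TGI is the concentration that stops growth completely.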

Columns and labels:
Test in all cases: NCI anticancer screen, dose series, 48 h
RPMI-8226 leukemia = tested on: RPMI-8226 leukemia
OVCAR-8 ovarian = tested on: OVCAR-8 ovarian
DLD-1 colon = tested on: DLD-1 colon
CCRF-CEM leukemia = tested on: CCRF-CEM leukemia
DMS 114 small cell lung = tested on: DMS 114 small cell lung
SNB-75 CNS = tested on: SNB-75 CNS
HL-60(TB) leukemia = tested on: HL-60(TB) leukemia
SW-620 colon = tested on: SW-620 colon
KM12 colon = tested on: KM12 colon
SNB-19 CNS = tested on: SNB-19 CNS
M14 melanoma = tested on: M14 melanoma

Row | SMILES | TGI (RPMI-8226 leukemia) [µM] | TGI (OVCAR-8 ovarian) [µM] | TGI (DLD-1 colon) [µM] | TGI (CCRF-CEM leukemia) [µM] | TGI (DMS 114 small cell lung) [µM] | TGI (SNB-75 CNS) [µM] | TGI (HL-60(TB) leukemia) [µM] | TGI (SW-620 colon) [µM] | TGI (KM12 colon) [µM] | TGI (SNB-19 CNS) [µM] | TGI (M14 melanoma) [µM]
1 | COc1cc(/C=C/C(=O)c2sc(-n3nc(-c4ccccc4)cc3-c3ccccc3)nc2C)ccc1O | > 100 | > 100 | > 100 | > 100 | > 100 | > 100 | > 100 | > 100 | > 100 |  | 
2 | COc1ccc(/C=C(\Cl)c2ccc(OC)c(OC)c2)cc1OC | > 100 | > 100 | > 100 | > 100 | > 100 | > 100 | > 100 | > 100 | > 100 | > 100 | > 100
3 | c1ccc(Nc2nnc(CSc3nc(-c4ccccc4)c(-c4ccccc4)[nH]3)s2)cc1 | 50.4 | 53.8 | > 100 | 49.1 | 81 | 85.6 | 31.4 |  | 44.1 |  | 28.5
4 | CCOC(=O)CSc1ccnc(=O)[nH]1 | > 100 | > 100 |  | > 100 | > 100 | > 100 | > 100 | > 100 | > 100 | > 100 | > 100
5 | CN(C(=O)C12C3C4C1C1C2C3C41I)C(C)(C)C (stereo not given) | > 100 | > 100 | > 100 | > 43 | > 100 | > 100 | > 92.7 | > 100 | > 100 | > 100 | > 100
6 | C/C(=N\N)C(CN(C)C)C(c1ccccc1)c1c(O)c2ccccc2oc1=O (stereo not given) | > 100 | > 100 | > 100 | > 100 | > 100 | > 100 | > 100 | > 100 | > 100 | > 100 | > 100
7 | CCCCCCn1c(SCC)c2ccccc2c1-c1nc(F)nc(F)n1 | > 100 | > 100 | > 100 | > 100 | > 100 | > 100 | > 100 | > 100 | > 100 | > 100 | > 100
8 | Cc1c2ccncc2cc2c1sc1ccncc12 | 7.49 | 23.7 | 15 | 5.32 | 21.6 | 15.4 | 6.79 | 16.7 | 17.1 | 30.3 | 13.5
9 | COc1ccc(Br)c2c1CC(C(=O)O)CC2 (stereo not given) | > 100 | > 100 | > 100 | > 100 | > 100 | > 100 | > 100 | > 100 | > 100 | > 100 | > 100
10 | O=C1CSC2(CC(/C=C/c3ccccc3O)=NN2c2cccc(S(=O)(=O)O)c2)N1c1nc2ccccc2s1 (stereo not given) | 42.1 | 54.1 |  | 51.7 |  | > 100 | 49 | > 100 | > 100 | > 100 | > 100
11 | CCCCc1ccc(Nc2nc(Cl)c3c(ncn3COCCOC(C)=O)n2)cc1 | > 100 | 33.6 |  | 60.7 |  | 16.5 | 49.9 | 41.4 | 37.5 | 46.1 | 34
12 | O=c1c2cc(S(=O)(=O)Nc3ccccc3Cl)ccc2ncn1NS(=O)(=O)c1ccc(Br)cc1 | > 37.5 | > 37.5 |  | > 37.5 |  | > 37.5 | > 37.5 | > 37.5 | > 37.5 | > 37.5 | > 37.5
13 | Clc1cccc(Cl)c1C=NC12CC3CC(CC(C3)C1)C2 | > 10 | > 10 |  | > 10 |  | > 10 | > 10 | > 10 | > 10 | > 10 | > 10
14 | O=C1NC(N2CCOCC2)=N/C1=C\c1cccs1 | > 100 | > 100 |  | > 100 |  | > 100 | > 100 | > 100 | > 100 | > 100 | > 100
15 | O=S1(=O)c2cnccc2NC(=NCc2cccc3ccccc23)N1c1ccccc1 | > 76.6 | > 100 |  | > 100 |  | > 100 | > 53.7 | > 100 | > 100 | > 100 | > 100
16 | NC(=S)NNC(=O)/C(=C/c1ccc(/C=C(\NC(=O)c2ccccc2)C(=O)NNC(N)=S)cc1)NC(=O)c1ccccc1 | > 70.2 | > 100 | > 100 | > 100 | > 100 | 85 | > 31.6 | > 100 | > 100 | > 100 | > 100

Row | SMILES | TGI (RPMI-8226 leukemia) [µM] | TGI (OVCAR-8 ovarian) [µM] | TGI (DLD-1 colon) [µM] | TGI (CCRF-CEM leukemia) [µM] | TGI (DMS 114 small cell lung) [µM] | TGI (SNB-75 CNS) [µM] | TGI (HL-60(TB) leukemia) [µM] | TGI (SW-620 colon) [µM] | TGI (KM12 colon) [µM] | TGI (SNB-19 CNS) [µM] | TGI (M14 melanoma) [µM]
17 | Fc1c(F)c(C(F)(F)F)c(F)c(F)c1N/N=C\c1c[nH]c2ccccc12 | 10.2 | 21.8 |  | 4.73 |  | 6.23 | 9.25 | 12.5 | 4.06 | 12 | 4.21
18 | CC1CC2OC(=O)C3CC(O)CC(=C23)[C@@]12C[C@@H](c1ccoc1)OC2=O (stereo not given in full) | > 100 | > 100 | > 100 | > 100 |  | > 100 | > 100 | > 100 | > 100 | > 100 | > 100
19 | O=C(O)C(=C\c1ccc2c(c1)OCO2)/C(=C/c1ccc2c(c1)OCO2)C(=O)O | > 100 | > 100 |  | > 100 |  | > 100 | > 100 | > 100 | > 100 | > 100 | > 100
20 | O=C1c2cc3c(cc2CC12Cc1cc4c(cc1C2=O)CCCC4)CCCC3 | > 100 | > 100 |  | > 100 |  | 53.4 | > 100 | > 100 | > 100 | > 100 | > 100
21 | COc1cc(OCc2ccc3nc(-c4ccccc4)c(N)nc3c2)cc(OC)c1OC | 31.3 | 72.3 |  | 61.9 |  | 59.7 | 32.4 | > 100 | 36.7 | > 100 | 29.3
22 | COc1cc(S(=O)(=O)Nc2ccc(-c3csc(N4C(=O)CSC4c4cccs4)n3)cc2)ccc1Cl (stereo not given) | 66.8 | > 100 |  | 95.1 |  | 40.3 | 41.5 | 68.5 | 48.7 | > 100 | > 100
23 | CC(C)OP(=O)(OC(C)C)C(C(C)C)N(C)/C(N)=N\C1=NC(C(F)(F)F)(C(F)(F)F)N=C(C(C(F)(F)F)C(F)(F)F)O1 (stereo not given) | 7.45 | 5.28 |  | 4.88 |  | 11.9 | 4.16 | 5.48 | 14 | 44.9 | 4.23
24 | c1csc(-c2cscc2-c2ccsc2)c1 | > 100 | > 100 |  | > 100 |  | > 100 | > 93.8 | > 100 | > 85.6 | > 100 | > 100
25 | CCOC(=O)c1ccc(C(=O)OCC)n1-c1cc2cc(c1)CSCc1cc(cc(-n3c(C(=O)OCC)ccc3C(=O)OCC)c1)CSC2 | > 10 | > 10 |  | > 10 |  | > 10 | > 10 | > 10 | > 10 | > 10 | > 10
26 | Cc1nc2sc(CCl)nn2c(=O)c1Cl | 24.4 | 31.4 |  | 24.9 |  | 24.7 | 29.8 | 25.6 | 25.2 | 32.3 | 26.9
27 | NC(=O)C(Nc1c(Cl)cccc1Cl)c1cc2cc(Br)ccc2nc1Cl (stereo not given) | > 100 | > 100 |  | > 100 |  | > 100 | > 100 | > 100 | > 100 | > 100 | > 100
28 | O=S(=O)([O-])[O-].[Fe+2].c1ccc(/C(=N\Nc2ccccn2)c2ccccn2)cc1 | 12.4 | 10.8 | 11.2 | 9.71 | 3.73 | 14.7 | 4.62 | 11.2 | 14.6 | 15.4 | 4.89
29 | O=P(O)(OCC(O)O)OCC(O)O | > 100 | > 100 | > 100 | > 100 | > 100 | > 100 | > 100 | > 100 | > 100 | > 100 | 
30 | Fc1cc(C2=C[C@H](c3ccc(Cl)cc3)NC(=S)N2)c(Cl)cc1Cl | 56.2 | > 100 |  | > 100 |  | > 100 | 65.7 | > 100 | > 100 | > 100 | > 100
31 | C/C(CN1C(=O)c2ccccc2C1=O)=N\NS(=O)(=O)c1ccc(Br)cc1 | > 100 | > 100 | > 100 | > 100 | 68.8 | > 100 | > 100 | > 100 | > 100 | > 100 | > 100
